Experiments:
[1] = Water solubility of pregabalin as the function of pH at 5° C.; type: physicochemical
Procedure: Water solubility at 5° C. of pregabalin as such and with the addition of 2.0 mg/ml sodium benzoate was measured as the function of pH.

cats = test: Randomized, double-blind, placebo-controlled clinical study: transportation and veterinary visit anxiety and fear in cats; type: in vivo, cat; conditions: 5 mg/kg orally
Procedure: A randomized, double-blind, placebo-controlled parallel-group, multicenter clinical study was conducted for evaluating the efficacy and safety of pregabalin for the treatment or prevention of transportation and veterinary visit anxiety and fear in cats. Cats were randomised to receive either 5 mg/kg (n=108) of pregabalin or placebo (n=101) orally as a single dose approximately 90 minutes before transportation to the veterinary clinic.
The study had two primary efficacy variables. The first primary variable was the owner's assessment of the treatment effect based on the cat's stress, anxiety and/or fear during transportation in a car. The second primary variable was the investigator's assessment of the treatment effect based on the cat's stress, anxiety and/or fear during clinical examination at the veterinary clinic. Both were assessed using a numerical rating scale with the scores 1-5.

[2] = single dose approximately 90 minutes before transportation

In the case of CC(C)C[C@H](CN)CC(=O)O [pregabalin], the “Water solubility as the function of pH” value ([1]; pregabalin as such, when pH is lower than about 4.4, FIG. 1) is reported as “increased significantly”, the “Physical stability (precipitation of pregabalin)” value ([1]; with addition of 2.0 mg/ml sodium benzoate, FIG. 1) is reported as “further improved the physical stability” and the Ataxia and sedation (cats; single dose) is reported as “did not produce marked ataxia or excessive sedation”. The “Investigator's assessment of treatment effect during clinical examination, % of cats, Score 1 Excellent” value (cats; [2]) was 14.3%, the “Investigator's assessment of treatment effect during clinical examination, % of cats, Score 2 Good” value (cats; [2]) was 41.0% and the “Investigator's assessment of treatment effect during clinical examination, % of cats, Score 3 Fair” value (cats; [2]) was 27.6%. The “Investigator's assessment of treatment effect during clinical examination, % of cats, Score 4 Poor” value (cats; [2]) was 10.5%, the “Investigator's assessment of treatment effect during clinical examination, % of cats, Score 5 Very poor” value (cats; [2]) was 6.7% and the “Owner's assessment of treatment effect during transportation, % of cats, Score 1 Excellent” value (cats; [2]) was 17.1%. For the same molecule, the “Owner's assessment of treatment effect during transportation, % of cats, Score 2 Good” value (cats; [2]) was 34.3%, the “Owner's assessment of treatment effect during transportation, % of cats, Score 3 Fair” value (cats; [2]) was 23.8% and the “Owner's assessment of treatment effect during transportation, % of cats, Score 4 Poor” value (cats; [2]) was 14.3%. The “Owner's assessment of treatment effect during transportation, % of cats, Score 5 Very poor” value (cats; [2]) was 10.5%.

Reference: patent publication US12558331B2, “Pregabalin formulations and use thereof” (priority 2019, dated 2026)
